Data from PubChem BioAssay AID248 (DTP/NCI, 2004).
“And” between values parts separate entries of the source, which are not always exact repeats. Equal entries are not always repeated. Toxic doses and inconclusive results are not listed. No stated cut-off is given here; in the data, active means T/C of 150% or more; inactive means T/C below 125%.

Tested on: L1210 leukemia ip in BDF1 mice, survival T/C
Experiment: NCI In Vivo Anticancer Drug Screen. Data for tumor model L1210 Leukemia (intraperitoneal) in B6D2F1 (BDF1) mice
Conditions: endpoint: mean survival time, higher = longer survival
Procedure, shortened: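 Tumor was transplanted into mice, which were then dosed with test compound or vehicle alone. Survival was recorded for each group, and the treated figure was expressed relative to the control figure.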

[1] = dose: 50.0 mg/kg/injection, schedule: Q04DX003 (ip), vehicle: Klucel (hydroxypropylcellulose) (HPC)
[2] = dose: 200.0 mg/kg/injection, schedule: Q04DX003 (ip), vehicle: Klucel (hydroxypropylcellulose) (HPC)
[3] = dose: 400.0 mg/kg/injection, schedule: Q04DX003 (ip), vehicle: Klucel (hydroxypropylcellulose) (HPC)
[4] = dose: 100.0 mg/kg/injection, schedule: Q01DX009 (ip), vehicle: saline
[5] = dose: 200.0 mg/kg/injection, schedule: Q01DX009 (ip), vehicle: saline
[6] = dose: 400.0 mg/kg/injection, schedule: Q01DX009 (ip), vehicle: saline
[7] = dose: 100.0 mg/kg/injection, schedule: Q04DX003 (ip), vehicle: saline with Tween-80
[8] = dose: 200.0 mg/kg/injection, schedule: Q04DX003 (ip), vehicle: saline with Tween-80
[9] = dose: 400.0 mg/kg/injection, schedule: Q04DX003 (ip), vehicle: saline with Tween-80
[10] = dose: 100.0 mg/kg/injection, schedule: Q04DX003 (ip), vehicle: Klucel (hydroxypropylcellulose) (HPC)
[11] = dose: 100.0 mg/kg/injection, schedule: Q01DX001 (ip), vehicle: Klucel (hydroxypropylcellulose) (HPC)
[12] = dose: 200.0 mg/kg/injection, schedule: Q01DX001 (ip), vehicle: Klucel (hydroxypropylcellulose) (HPC)

Measured: T/C

COc1ccc(NC(=O)Nc2cccc(SC)c2)cc1
inactive: dose: 100.0 mg/kg/injection, schedule: Q01DX009 (ip), vehicle: carboxymethylcellulose (CMC) 94 % of control and 97 % of control | dose: 100.0 mg/kg/injection, schedule: Q04DX002 (ip), vehicle: Klucel (hydroxypropylcellulose) (HPC) 93 % of control | dose: 100.0 mg/kg/injection, schedule: Q04DX002 (ip), vehicle: carboxymethylcellulose (CMC) 97 % of control and 101 % of control | dose: 100.0 mg/kg/injection, schedule: Q04DX003 (ip), vehicle: carboxymethylcellulose (CMC) 94 % of control | dose: 200.0 mg/kg/injection, schedule: Q01DX009 (ip), vehicle: carboxymethylcellulose (CMC) 92 % of control and 95 % of control | dose: 200.0 mg/kg/injection, schedule: Q04DX002 (ip), vehicle: Klucel (hydroxypropylcellulose) (HPC) 93 % of control | dose: 200.0 mg/kg/injection, schedule: Q04DX002 (ip), vehicle: carboxymethylcellulose (CMC) 100 % of control and 91 % of control | dose: 200.0 mg/kg/injection, schedule: Q04DX003 (ip), vehicle: carboxymethylcellulose (CMC) 86 % of control | dose: 400.0 mg/kg/injection, schedule: Q01DX009 (ip), vehicle: carboxymethylcellulose (CMC) 94 % of control | dose: 400.0 mg/kg/injection, schedule: Q04DX002 (ip), vehicle: Klucel (hydroxypropylcellulose) (HPC) 107 % of control | dose: 400.0 mg/kg/injection, schedule: Q04DX002 (ip), vehicle: carboxymethylcellulose (CMC) 111 % of control and 91 % of control | dose: 400.0 mg/kg/injection, schedule: Q04DX003 (ip), vehicle: carboxymethylcellulose (CMC) 93 % of control

Cc1cc(Cl)ccc1O/C(=C/C(=O)O)C(=O)O
inactive: dose: 100.0 mg/kg/injection, schedule: Q04DX002 (ip), vehicle: saline with Tween-80 107 % of control | dose: 200.0 mg/kg/injection, schedule: Q04DX002 (ip), vehicle: saline with Tween-80 107 % of control | dose: 400.0 mg/kg/injection, schedule: Q04DX002 (ip), vehicle: saline with Tween-80 100 % of control

Cc1ccc(S(=O)(=O)OCC2OC(OCc3ccccc3)C3OC(C)(C)OC23)cc1 (stereo not given)
inactive: [1] 91 % of control | [2] 88 % of control | [3] 92 % of control

C/C(=N/O)c1ccc2c(c1)Cc1ccccc1-2
inactive: dose: 100.0 mg/kg/injection, schedule: Q01DX001 (ip), vehicle: carboxymethylcellulose (CMC) 105 % of control | dose: 200.0 mg/kg/injection, schedule: Q01DX001 (ip), vehicle: carboxymethylcellulose (CMC) 100 % of control | dose: 400.0 mg/kg/injection, schedule: Q01DX001 (ip), vehicle: carboxymethylcellulose (CMC) 98 % of control

CCC(C)(C)c1ccc(OCCOS(=O)(=O)c2ccc(C)cc2)cc1
inactive: dose: 100.0 mg/kg/injection, schedule: Q01DX009 (ip), vehicle: saline sonified 96 % of control | dose: 200.0 mg/kg/injection, schedule: Q01DX009 (ip), vehicle: saline sonified 108 % of control | dose: 400.0 mg/kg/injection, schedule: Q01DX009 (ip), vehicle: saline sonified 97 % of control

CC(CCC(=O)O)(c1cc(Br)c(O)c(Br)c1)c1cc(Br)c(O)c(Br)c1
inactive: [4] 93 % of control | dose: 100.0 mg/kg/injection, schedule: Q04DX003 (ip), vehicle: other 102 % of control | [5] 95 % of control | dose: 200.0 mg/kg/injection, schedule: Q04DX003 (ip), vehicle: other 102 % of control | [6] 87 % of control | dose: 400.0 mg/kg/injection, schedule: Q04DX003 (ip), vehicle: other 109 % of control

COc1ccccc1OC(=S)N(C)C
inactive: dose: 100.0 mg/kg/injection, schedule: Q01DX009 (ip), vehicle: saline with Tween-80 102 % of control | [7] 103 % of control | dose: 200.0 mg/kg/injection, schedule: Q01DX009 (ip), vehicle: saline with Tween-80 100 % of control | [8] 122 % of control | dose: 400.0 mg/kg/injection, schedule: Q01DX009 (ip), vehicle: saline with Tween-80 93 % of control | [9] 105 % of control

NNc1n[nH]c(=O)n1N
inactive: [10] 113 % of control | [2] 100 % of control

NC(=O)NN=C1CCC(CC2CCCCC2)CC1 (stereo not given)
inactive: dose: 25.0 mg/kg/injection, schedule: Q04DX003 (ip), vehicle: saline with Tween-80 102 % of control | dose: 50.0 mg/kg/injection, schedule: Q04DX003 (ip), vehicle: saline with Tween-80 102 % of control

COc1nc(N)nc2nc(N)c(-c3ccc(N(CCO)CCO)cc3)nc12
inactive: dose: 100.0 mg/kg/injection, schedule: Q01DX001 (ip), vehicle: saline 95 % of control | dose: 200.0 mg/kg/injection, schedule: Q01DX001 (ip), vehicle: saline 96 % of control | dose: 400.0 mg/kg/injection, schedule: Q01DX001 (ip), vehicle: saline 95 % of control

Cc1cc([N+](=O)[O-])c(C)cc1O
inactive: dose: 75.0 mg/kg/injection, schedule: Q01DX001 (ip), vehicle: saline 91 % of control | dose: 150.0 mg/kg/injection, schedule: Q01DX001 (ip), vehicle: saline 94 % of control

FCCBr
inactive: dose: 3.12 mg/kg/injection, schedule: Q04DX003 (ip), vehicle: saline 104 % of control | dose: 6.25 mg/kg/injection, schedule: Q04DX003 (ip), vehicle: saline 104 % of control | dose: 12.5 mg/kg/injection, schedule: Q01DX009 (ip), vehicle: water 100 % of control | dose: 12.5 mg/kg/injection, schedule: Q04DX003 (ip), vehicle: saline 107 % of control | dose: 25.0 mg/kg/injection, schedule: Q04DX003 (ip), vehicle: saline 112 % of control | dose: 25.0 mg/kg/injection, schedule: Q04DX003 (ip), vehicle: water 97 % of control | dose: 100.0 mg/kg/injection, schedule: Q04DX003 (ip), vehicle: water 112 % of control

O=C(O)c1ccc(CC2CC3CCC2C3)cc1 (stereo not given)
inactive: [7] 93 % of control | [8] 91 % of control | [9] 88 % of control

O=C1c2cccc3c2C2(C45c6c7cccc6C(=O)c6cccc(c64)C(=O)c4cccc(c45)C7=O)c4c1cccc4C(=O)c1cccc(c12)C3=O
inactive: [4] 103 % of control | [7] 94 % of control | [5] 95 % of control | [8] 107 % of control | [6] 95 % of control | [9] 94 % of control

N#CC1(C#N)C(c2ccccc2)C1(C#N)C#N
inactive: dose: 6.25 mg/kg/injection, schedule: Q01DX009 (ip), vehicle: saline with Tween-80 107 % of control | dose: 6.25 mg/kg/injection, schedule: Q04DX003 (ip), vehicle: saline sonified 102 % of control | dose: 12.5 mg/kg/injection, schedule: Q01DX009 (ip), vehicle: saline with Tween-80 105 % of control | dose: 12.5 mg/kg/injection, schedule: Q04DX003 (ip), vehicle: saline sonified 113 % of control | dose: 25.0 mg/kg/injection, schedule: Q01DX009 (ip), vehicle: saline with Tween-80 105 % of control | dose: 25.0 mg/kg/injection, schedule: Q04DX003 (ip), vehicle: saline sonified 96 % of control

CCOc1ccc2cc(Br)ccc2c1
inactive: dose: 50.0 mg/kg/injection, schedule: Q01DX001 (ip), vehicle: Klucel (hydroxypropylcellulose) (HPC) 101 % of control | [11] 106 % of control | [12] 97 % of control

O=C1CCCC/C1=C/c1ccc(Cl)cc1
inactive: dose: 100.0 mg/kg/injection, schedule: Q01DX009 (ip), vehicle: Klucel (hydroxypropylcellulose) (HPC) 95 % of control | [10] 103 % of control | dose: 200.0 mg/kg/injection, schedule: Q01DX009 (ip), vehicle: Klucel (hydroxypropylcellulose) (HPC) 98 % of control | [2] 106 % of control | dose: 400.0 mg/kg/injection, schedule: Q01DX009 (ip), vehicle: Klucel (hydroxypropylcellulose) (HPC) 101 % of control | [3] 105 % of control

COC(=O)CCS
inactive: dose: 10.0 mg/kg/injection, schedule: Q01DX001 (ip), vehicle: saline 101 % of control | dose: 20.0 mg/kg/injection, schedule: Q01DX001 (ip), vehicle: saline 101 % of control | dose: 40.0 mg/kg/injection, schedule: Q01DX001 (ip), vehicle: saline 96 % of control

CN(C)C(=S)SCCOc1ccc(Cl)cc1Cl
inactive: dose: 25.0 mg/kg/injection, schedule: Q04DX003 (ip), vehicle: Klucel (hydroxypropylcellulose) (HPC) 95 % of control | [1] 98 % of control | [11] 96 % of control | [10] 101 % of control | [12] 100 % of control | dose: 400.0 mg/kg/injection, schedule: Q01DX001 (ip), vehicle: Klucel (hydroxypropylcellulose) (HPC) 104 % of control
